Assays:
Type in all cases: functional
[1] = species: Mus musculus; test: Anti-oxidative activity against ALS mouse model assessed as animal survival relative to control
[2] = species: Mus musculus; test: Anti-inflammatory activity against ALS mouse model harbouring human G93A SOD1 mutant assessed as survival relative to control
[3] = species: Mus musculus; test: Effect on mitochondrial protection in ALS mouse model assessed as survival relative to control
[4] = target: Superoxide dismutase [Cu-Zn] (Homo sapiens) (UniProt P00441); test: Effect on human SOD1 protein homeostasis in ALS mouse model assessed as survival relative to control
[5] = species: Mus musculus; test: Anti-oxidative activity against ALS transgenic mouse model harbouring human G93A SOD1 (B6SJL-TgN(SOD1-G93A)1Gur mutant assessed as survival relative to control
[6] = species: Mus musculus; test: Anti-excitotoxic activity against ALS transgenic mouse model harbouring human G93A SOD1 (B6SJL-TgN(SOD1-G93A)1Gur mutant assessed as survival relative to control
[7] = species: Mus musculus; test: Anti-inflammatory activity against ALS transgenic mouse model harbouring human G93A SOD1 (B6SJL-TgN(SOD1-G93A)1Gur mutant assessed as survival relative to control
[8] = species: Mus musculus; test: Anti-inflammatory activity against ALS mouse model assessed as animal survival relative to control
[9] = species: Mus musculus; test: Anti-apoptotic activity against ALS mouse model expressing human G93A SOD1 mutant assessed as survival relative to control
[10] = species: Mus musculus; test: Anti-apoptotic activity against ALS mouse model assessed as animal survival relative to control
[11] = species: Mus musculus; test: Anti-inflammatory activity against ALS B6SJLF1/J mouse model assessed as animal survival relative to control
[12] = species: Mus musculus; test: Anti-excitotoxic activity against ALS mouse model assessed as animal survival relative to control

Sequence of Superoxide dismutase [Cu-Zn] (Homo sapiens) (P00441 whole entry): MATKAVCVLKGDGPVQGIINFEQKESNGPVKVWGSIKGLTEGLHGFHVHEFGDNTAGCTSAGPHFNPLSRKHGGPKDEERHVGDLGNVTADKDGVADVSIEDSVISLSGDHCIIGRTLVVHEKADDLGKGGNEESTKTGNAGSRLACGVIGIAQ

**Q.** `C#CCN(C)Cc1ccc(O)c2ncccc12` was tested. Which Survival [1] did it give?
**A.** 6%

**Q.** How did the Survival [2] turn out when `CN1CCCCC1Cn1cc(C(=O)c2cc([N+](=O)[O-])ccc2I)c2ccccc21` (centres undefined) was run?
**A.** 10%

**Q.** For `CN(CC(=O)O)C(=N)N.O`, which Survival [3] is on record?
**A.** 15%

**Q.** `O=C([O-])[O-].[Li+].[Li+]` was tested. Which Survival [4] did it give?
**A.** 36%

**Q.** For `[O-][n+]1cccc(/C(Cl)=N/OC[C@H](O)CN2CCCCC2)c1`, which Survival [4] is on record?
**A.** 9%

**Q.** With `CC(=O)N[C@@H](CS)C(=O)O` [ACETYLCYSTEINE] as the molecule, how does the Survival [5] read?
**A.** 7%

**Q.** Which Survival [6] does the source give for `CO/N=C(\C(=O)N[C@@H]1C(=O)N2C(C(=O)O)=C(CSc3nc(=O)c(O)nn3C)CS[C@H]12)c1csc(N)n1` [CEFTRIAXONE] here?
**A.** 8%

**Q.** Which Survival [7] does the source give for `CC1=C(O)C(=O)C=C2C1=CC=C1[C@@]2(C)CC[C@@]2(C)[C@@H]3C[C@](C)(C(=O)O)CC[C@]3(C)CC[C@]12C` [CELASTROL] here?
**A.** 9%

**Q.** `Cc1ccc(-c2cc(C(F)(F)F)nn2-c2ccc(S(N)(=O)=O)cc2)cc1` [CELECOXIB] was tested. Which Survival [8] did it give?
**A.** 25%

**Q.** Which Survival [7] does the source give for `Nc1cccc2c1CN(C1CCC(=O)NC1=O)C2=O` (centres undefined) [LENALIDOMIDE] here?
**A.** 18%

**Q.** How did the Survival [9] turn out when `COc1ccc2[nH]cc(CCNC(C)=O)c2c1` [MELATONIN] was run?
**A.** 7%

**Q.** How did the Survival [6] turn out when `CC12CC3CC(C)(C1)CC(N)(C3)C2` [MEMANTINE] was run?
**A.** 5%

**Q.** How did the Survival [10] turn out when `CN(C)c1ccc(O)c2c1C[C@H]1C[C@H]3[C@H](N(C)C)C(O)=C(C(N)=O)C(=O)[C@@]3(O)C(O)=C1C2=O` [MINOCYCLINE] was run?
**A.** 6%

**Q.** For `COC1=C(OC)C(=O)C(CCCCCCCCCC[P+](c2ccccc2)(c2ccccc2)c2ccccc2)=C(C)C1=O.CS(=O)(=O)[O-]` [MITOQUINONE MESYLATE], which Survival [5] is on record?
**A.** 4%

**Q.** With `CC(C)CCC[C@@H](C)[C@H]1CC[C@H]2[C@@H]3CCC4=CC(=NO)CC[C@]4(C)[C@H]3CC[C@]12C` [OLESOXIME] as the molecule, how does the Survival [3] read?
**A.** 10%

**Q.** With `CCc1ccc(CCOc2ccc(CC3SC(=O)NC3=O)cc2)nc1` (centres undefined) [PIOGLITAZONE] as the molecule, how does the Survival [11] read?
**A.** 8%

**Q.** With `Nc1nc2ccc(OC(F)(F)F)cc2s1` [RILUZOLE] as the molecule, how does the Survival [12] read?
**A.** 10%

**Q.** With `O=C([O-])CCCc1ccccc1.[Na+]` [SODIUM PHENYLBUTYRATE] as the molecule, how does the Survival [10] read?
**A.** 22%

**Q.** `O=C1CCC(N2C(=O)c3ccccc3C2=O)C(=O)N1` (centres undefined) [THALIDOMIDE] was tested. Which Survival [8] did it give?
**A.** 12%
